According to patent US9783536B2, “Nitrogen-containing heterocyclic compound or salt thereof” (FUJIFILM Corporation, priority 2013, dated 2017):
pIC50: −log10 of the molar value. Structures can show the parent of a compound that is named as a salt.

Columns and labels:
human PI3Kα protein = target: T1, human PI3Kα protein (Homo sapiens, UniProt P42336); test: PI3Kα enzyme assay (ADP-Glo); format: biochemical; settings: read-out: PI3Kα enzyme inhibitory activity
T1 construct: purchased Carna Biosciences, Inc; host or cells: baculovirus expression system
T1 sequence (P42336 whole entry): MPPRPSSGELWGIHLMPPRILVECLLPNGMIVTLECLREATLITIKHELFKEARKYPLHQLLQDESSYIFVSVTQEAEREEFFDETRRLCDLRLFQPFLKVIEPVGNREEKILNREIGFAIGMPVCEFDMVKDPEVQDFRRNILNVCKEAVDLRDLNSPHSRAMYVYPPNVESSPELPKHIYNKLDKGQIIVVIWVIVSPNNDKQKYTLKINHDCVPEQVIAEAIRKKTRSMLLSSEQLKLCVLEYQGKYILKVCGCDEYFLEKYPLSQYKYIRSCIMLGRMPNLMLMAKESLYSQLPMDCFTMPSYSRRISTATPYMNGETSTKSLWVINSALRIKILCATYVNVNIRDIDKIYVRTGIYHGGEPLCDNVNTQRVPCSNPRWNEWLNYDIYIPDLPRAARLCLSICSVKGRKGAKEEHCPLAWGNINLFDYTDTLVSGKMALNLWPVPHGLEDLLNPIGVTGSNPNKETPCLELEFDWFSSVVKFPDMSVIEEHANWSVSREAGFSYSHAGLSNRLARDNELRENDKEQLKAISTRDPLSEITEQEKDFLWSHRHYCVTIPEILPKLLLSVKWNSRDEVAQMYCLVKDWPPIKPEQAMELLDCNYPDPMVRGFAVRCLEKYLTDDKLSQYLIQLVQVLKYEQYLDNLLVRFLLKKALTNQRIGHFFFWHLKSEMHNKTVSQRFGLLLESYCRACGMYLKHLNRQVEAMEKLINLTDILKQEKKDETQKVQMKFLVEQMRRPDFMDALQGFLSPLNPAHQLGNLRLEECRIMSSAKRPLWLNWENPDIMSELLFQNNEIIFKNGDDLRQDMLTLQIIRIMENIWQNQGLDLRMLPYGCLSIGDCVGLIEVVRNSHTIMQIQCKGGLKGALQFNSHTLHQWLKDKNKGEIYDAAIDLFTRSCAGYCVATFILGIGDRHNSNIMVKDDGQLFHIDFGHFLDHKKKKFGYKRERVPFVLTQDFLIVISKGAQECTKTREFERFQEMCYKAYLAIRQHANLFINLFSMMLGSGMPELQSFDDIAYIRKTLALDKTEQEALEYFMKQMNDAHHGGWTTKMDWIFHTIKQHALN
T1 sequence (P27986 whole entry partner): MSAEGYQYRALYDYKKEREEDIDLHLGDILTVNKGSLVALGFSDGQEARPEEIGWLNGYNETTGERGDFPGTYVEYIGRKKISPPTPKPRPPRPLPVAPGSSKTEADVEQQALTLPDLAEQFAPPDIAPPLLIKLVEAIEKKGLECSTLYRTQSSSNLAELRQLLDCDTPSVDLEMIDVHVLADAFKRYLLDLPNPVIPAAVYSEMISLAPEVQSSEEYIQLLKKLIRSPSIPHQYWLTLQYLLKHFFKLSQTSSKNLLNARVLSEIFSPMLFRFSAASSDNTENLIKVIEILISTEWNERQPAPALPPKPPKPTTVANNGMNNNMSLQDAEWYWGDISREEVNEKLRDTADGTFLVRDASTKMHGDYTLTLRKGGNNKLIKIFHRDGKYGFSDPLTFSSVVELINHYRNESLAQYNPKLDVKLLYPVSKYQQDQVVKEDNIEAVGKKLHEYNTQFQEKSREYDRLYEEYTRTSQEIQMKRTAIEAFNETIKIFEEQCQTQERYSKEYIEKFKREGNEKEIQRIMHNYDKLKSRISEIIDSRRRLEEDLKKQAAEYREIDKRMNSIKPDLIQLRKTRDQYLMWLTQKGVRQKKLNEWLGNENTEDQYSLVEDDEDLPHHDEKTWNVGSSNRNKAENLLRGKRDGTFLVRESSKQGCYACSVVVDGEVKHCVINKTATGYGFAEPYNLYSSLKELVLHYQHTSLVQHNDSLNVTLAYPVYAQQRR
Method: In a PI3Kα enzyme assay, a product (manufactured by Carna Biosciences, Inc.) obtained by biotinylating a human PI3Kα protein produced by using a baculovirus expression system was used. In addition, in the detection of enzyme activity, ADP-GLO KINASE ASSAY (trade name, manufactured by PROMEGA Corporation) was used.
10 μL of a reaction liquid (4.5 nmol/L PI3Kα, 40 mmol/L Tris-HCl, 20 mmol/L MgCl2, 0.1% BSA, pH 7.5) including the human PI3Kα protein and a test compound having a predetermined concentration was allowed to stand at room temperature for 15 minutes. Then, 5 μL of a mixture liquid of L-α-phosphatidylinositol 4,5-diphosphate (PIP2) (manufactured by Sigma-Aldrich Co. LLC.) and ATP (manufactured by Sigma-Aldrich Co. LLC.), which are substrates, was added thereto such that final concentrations thereof became 50 μmol/L and 100 μmol/L, respectively, and an enzyme reaction was performed by allowing to stand at 25° C. for 60 minutes.
After the reaction, the enzyme reaction was stopped by adding 15 μL of an ADP-GLO REAGENT (trade name, manufactured by PROMEGA Corporation) thereto and allowing to stand at room temperature for 60 minutes. Then, 30 μL of a KINASE DETECTION REAGENT (trade name, manufactured by PROMEGA Corporation) was added thereto, followed by allowing to stand at room temperature for 40 minutes, and ADP produced by the enzyme reaction was quantified by emission intensity.
ENVISION (trade name, manufactured by Perkin Elmer Inc.) was used for the measurement of the emission intensity.
(§1) The inhibitory activities of the compounds were evaluated using IC50 (50% inhibitory concentration). The IC50 was calculated using XLFIT (trade name, manufactured by ID Business Solutions).

[1] = target: T2, GST fusion human ERK2 protein (Homo sapiens, UniProt P28482); test: ERK2 enzyme assay (2); format: biochemical; settings: ERK2 enzyme assay (2); read-out: ERK2 enzyme inhibitory activity (2)
T2 construct: purchased Carna Biosciences, Inc; host or cells: E. coli expression system
T2 sequence (P28482 whole entry, the tested form may be a part): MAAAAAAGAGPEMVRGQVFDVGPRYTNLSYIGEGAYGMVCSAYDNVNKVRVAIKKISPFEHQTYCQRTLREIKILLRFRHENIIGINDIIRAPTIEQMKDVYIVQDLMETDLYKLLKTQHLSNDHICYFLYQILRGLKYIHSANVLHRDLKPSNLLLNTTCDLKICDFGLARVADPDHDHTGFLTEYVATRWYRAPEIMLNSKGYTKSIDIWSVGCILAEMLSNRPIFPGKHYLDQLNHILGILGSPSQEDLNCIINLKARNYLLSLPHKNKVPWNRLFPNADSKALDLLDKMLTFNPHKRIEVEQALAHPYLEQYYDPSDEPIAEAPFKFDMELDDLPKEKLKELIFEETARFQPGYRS
Method: In an ERK2 enzyme assay, GLUTATHIONE S-TRANSFERASE (GST) FUSION HUMAN ERK2 PROTEIN (manufactured by Carna Biosciences, Inc.), which was produced by using an E. coli expression system, was used.
12 μL of a reaction liquid (1.25 nmol/L ERK2, 100 mmol/L Hepes, 10 mmol/L MgCl2, 1.5 mmol/L DTT, 0.003% Brij35, pH 7.5) including ERK2 protein and a test compound having a predetermined concentration was allowed to stand at room temperature for 15 minutes. Then, 3 μL of a mixture liquid of FL-PEPTIDE8 (5-FAM-IPTSPITTTYFFFKKK-COOH) (manufactured by Caliper Life Sciences), which is substrate peptide, and ATP (manufactured by Sigma-Aldrich Co. LLC.) was added thereto such that the final concentrations thereof became 4.25 μmol/L and 1 mmol/L, respectively, and an enzyme reaction was performed by allowing to stand at 25° C. for 120 minutes.
After the reaction, the enzyme reaction was stopped by adding 30 μL of a reaction stopper liquid (100 mmol/L HEPES, 11.2 mmol/L EDTA, 5.6% Brij35, pH 7.5) including a 0.5% COATING REAGENT 8 (trade name, manufactured by Perkin Elmer Inc.) thereto. Then, phosphorylated peptide and non-phosphorylated peptide were separated using LABCHIP EZ READER (trade name, manufactured by Caliper Life Sciences), and the porportion of the phosphorylated peptide was quantified.
as §1

Row | pIC50 (human PI3Kα protein) | pIC50 [1] | SMILES
1 | > 6.00 | > 6.00 | CC(=O)N1CC(Cn2cc(-c3cnc4ccc(Nc5cc(C(C)C)cnn5)nc4c3)cn2)C1 [Example 0438, 1-(3-((4-(6-((5-isopropylpyridazin-3-yl)amino)-1,5-naphthyridin-3-yl)-1H-pyrazol-1-yl)methyl)azetidin-1-yl)ethanone]
2 | > 6.00 | > 6.00 | CCn1cc(-c2cnc3ccc(Nc4cc(C(C)C)cnn4)nc3c2)cn1 [Example 0440, 7-(1-Ethyl-1H-pyrazol-4-yl)-N-(5-isopropylpyridazin-3-yl)-1,5-naphthyridine-2-amine]
3 | > 6.00 | > 6.00 | CCCn1cc(-c2cnc3ccc(Nc4cc(C(C)C)cnn4)nc3c2)cn1 [Example 0441]
4 | > 6.00 | > 6.00 | CC(C)c1cnnc(Nc2ccc3ncc(-c4cnn(C(C)C)c4)cc3n2)c1 [Example 0442]
5 | > 6.00 | > 6.00 | CC(C)c1cnnc(Nc2ccc3ncc(-c4cnn(CCCN5CCN(c6ccccn6)CC5)c4)cc3n2)c1 [Example 0444]
6 | > 6.00 | > 6.00 | CC(C)c1cnnc(Nc2ccc3ncc(-c4cnn(CCCN5CCN(c6ccncc6)CC5)c4)cc3n2)c1 [Example 0445]
7 | > 6.00 | > 6.00 | CC(C)c1cnnc(Nc2ccc3ncc(-c4cnn(CCCN5CCN(c6cccnc6)CC5)c4)cc3n2)c1 [Example 0446]
8 | > 6.00 | 5.00 to 6.00 | CC(C)c1cnnc(Nc2ccc3nccc(-c4cnn(C)c4)c3n2)c1 [Example 0447, N-(5-isopropylpyridazin-3-yl)-8-(1-methyl-1H-pyrazol-4-yl)-1,5-naphthyridine-2-amine]
9 | > 6.00 | 5.00 to 6.00 | Cc1cnnc(Nc2ccc3nccc(-c4cnn(C)c4)c3n2)c1 [Example 0448, 8-(1-Methyl-1H-pyrazol-4-yl)-N-(5-methylpyridazin-3-yl)-1,5-naphthyridine-2-amine]
10 | > 6.00 | > 6.00 | CC(C)c1cnnc(Nc2ccc3ncc(-c4cnn(Cc5cscn5)c4)cc3n2)c1 [Example 0449]
11 | > 6.00 | > 6.00 | COc1cncc(-c2nn(C)cc2-c2cnc3ccc(Nc4cc(C(C)C)cnn4)nc3c2)c1 [Example 0451]
12 | > 6.00 | > 6.00 | COc1cccc(-c2nn(C)cc2-c2cnc3ccc(Nc4cc(C(C)C)cnn4)nc3c2)c1 [Example 0452]
13 | > 6.00 | > 6.00 | COc1ccc(Cn2cc(-c3cnc4ccc(Nc5cc(C(C)C)cnn5)nc4c3)cn2)cn1 [Example 0453, N-(5-isopropylpyridazin-3-yl)-7-(1-((6-methoxypyridin-3-yl)methyl)-1H-pyrazol-4-yl)-1,5-naphthyridine-2-amine]
14 | > 6.00 | > 6.00 | COc1ncccc1Cn1cc(-c2cnc3ccc(Nc4cc(C(C)C)cnn4)nc3c2)cn1 [Example 0454]
15 | > 6.00 | 4.30 to 5.00 | Cc1cnnc(Nc2ccc3ncc(-c4cn(C)nc4-c4ccc(C#N)nc4)cc3n2)c1 [Example 0457]
16 | > 6.00 | 4.30 to 5.00 | COc1ccc(-c2nn(C)cc2-c2cnc3ccc(Nc4cc(C)cnn4)nc3c2)cn1 [Example 0458]
17 | > 6.00 | > 6.00 | CC(=O)Nc1ccc(-c2nn(C)cc2-c2cnc3ccc(Nc4cc(C(C)C)cnn4)nc3c2)cn1 [Example 0459]
18 | > 6.00 | > 6.00 | CC(C)c1cnnc(Nc2ccc3ncc(-c4cn(C)nc4-c4ccc(N)nc4)cc3n2)c1 [Example 0461, 7-(3-(6-aminopyridin-3-yl)-1-methyl-1H-pyrazol-4-yl)-N-(5-isopropylpyridazin-3-yl)-1,5-naphthyridine-2-amine]

Row | pIC50 (human PI3Kα protein) | pIC50 [1] | SMILES
19 | > 6.00 | > 6.00 | c1cncc(Cn2cc(-c3cnc4ccc(Nc5cc(C6CC6)cnn5)nc4c3)cn2)c1 [Example 0463, N-(5-cyclopropylpyridazin-3-yl)-7-(1-(pyridin-3-ylmethyl)-1H-pyrazol-4-yl)-1,5-naphthyridine-2-amine]
20 | > 6.00 | > 6.00 | CC(C)c1cnnc(Nc2ccc3ncc(-c4cnn(Cc5ccc(N)nc5)c4)cc3n2)c1 [Example 0464]
21 | > 6.00 | > 6.00 | CC(C)c1cnnc(Nc2ccc3ncc(-c4cnn(CCF)c4)cc3n2)c1 [Example 0466]
22 | > 6.00 | > 6.00 | CC(C)c1cnnc(Nc2ccc3ncc(-c4cnn(CC(F)F)c4)cc3n2)c1 [Example 0467]
23 | > 6.00 | > 6.00 | CC(C)c1cnnc(Nc2ccc3ncc(-c4cnn(CCCCl)c4)cc3n2)c1 [Example 0468]
24 | > 6.00 | > 6.00 | CC(C)c1cnnc(Nc2ccc3ncc(-c4cn(C)nc4Nc4cccnc4)cc3n2)c1 [Example 0469]
25 | > 6.00 | > 6.00 | CC(=O)Nc1ccc(Cn2cc(-c3cnc4ccc(Nc5cc(C(C)C)cnn5)nc4c3)cn2)cc1 [Example 0470, N-(4-((4-(6-((5-isopropylpyridazin-3-yl)amino)-1,5-naphthyridin-3-yl)-1H-pyrazol-1-yl)methyl)phenyl)acetamide]
26 | > 6.00 | > 6.00 | CC(=O)N1CCC(n2cc(-c3cnc4ccc(Nc5cc(C(C)C)cnn5)nc4c3)cn2)CC1 [Example 0478, 1-(4-(4-(6-((5-Isopropylpyridazin-3-yl)amino)-1,5-naphthyridin-3-yl)-1H-pyrazol-1-yl)piperidin-1-yl)ethanone]
27 | > 6.00 | > 6.00 | CC(C)c1cnnc(Nc2ccc3ncc(-c4cnn(C5CCN(CCO)CC5)c4)cc3n2)c1 [Example 0480, 2-(4-(4-(6-((5-Isopropylpyridazin-3-yl)amino)-1,5-naphthyridin-3-yl)-1H-pyrazol-1-yl)piperidin-1-yl)ethanol]
28 | 5.00 to 6.00 | > 6.00 | CC(C)c1cnnc(Nc2ccc3ncc(-c4cnn(C(C)(C)C)c4)cc3n2)c1 [Example 0481]
29 | > 6.00 | > 6.00 | CC(C)c1cnnc(Nc2ccc3ncc(-c4cnn(CCC5CCOCC5)c4)cc3n2)c1 [Example 0483]
30 | > 6.00 | > 6.00 | COCC(COC)Cn1cc(-c2cnc3ccc(Nc4cc(C(C)C)cnn4)nc3c2)cn1 [Example 0484]
31 | > 6.00 | > 6.00 | CC(C)c1cnnc(Nc2ccc3ncc(-c4cnn(CC5CCNCC5)c4)cc3n2)c1 [Example 0485, trifluoroacetic acid salt of N-(5-isopropylpyridazin-3-yl)-7-(1-(piperidin-4-ylmethyl)-1H-pyrazol-4-yl)-1,5-naphthyridine-2-amine]
32 | > 6.00 | > 6.00 | CC(C)c1cnnc(Nc2ccc3ncc(-c4cnn(CCC5CCNCC5)c4)cc3n2)c1 [Example 0488, hydrochloric acid salt of N-(5-isopropylpyridazin-3-yl)-7-(1-(2-(piperidin-4-yl)ethyl)-1H-pyrazol-4-yl)-1,5-naphthyridine-2-amine]
33 | 4.30 to 5.00 | 5.00 to 6.00 | Cc1ccnnc1Nc1ccc2ncc(-c3cnn(C)c3)cc2n1 [Example 0489]
34 | > 6.00 | > 6.00 | Cc1cn(-c2cnc3ccc(Nc4cc(C(C)C)cnn4)nc3c2)cn1 [Example 0494, N-(5-isopropylpyridazin-3-yl)-7-(4-methyl-1H-imidazol-1-yl)-1,5-naphthyridine-2-amine]
35 | > 6.00 | > 6.00 | COc1cnnc(Nc2ccc3ncc(-c4cnn(C)c4)cc3n2)c1 [Example 0495, N-(5-methoxypyridazin-3-yl)-7-(1-methyl-1H-pyrazol-4-yl)-1,5-naphthyridine-2-amine]
36 | > 6.00 | > 6.00 | COc1cnnc(Nc2ccc3ncc(-c4cnn(CCCN5CCOCC5)c4)cc3n2)c1 [Example 0496, N-(5-methoxypyridazin-3-yl)-7-(1-(3-morpholinopropyl)-1H-pyrazol-4-yl)-1,5-naphthyridine-2-amine]
